In ChEMBL document CHEMBL3632574, “Synthesis and evaluation of antibacterial activity of (R)-2-methylheptyl isonicotinate, a putative naturally occurring bioactive agent” (2015):
The source made the active and inactive calls. The rule behind the calls is not given here.

Tests used:
Escherichia coli [1] = test: Bacteriostatic activity against Escherichia coli up to 500 ug/ml after 48 hrs; type: functional, organism-based
Escherichia coli [2] = test: Bactericidal activity against Escherichia coli up to 500 ug/ml after 48 hrs; type: functional, organism-based
Bacillus subtilis [3] = test: Bacteriostatic activity against Bacillus subtilis up to 500 ug/ml after 48 hrs; type: functional, organism-based
Bacillus subtilis [4] = test: Bactericidal activity against Bacillus subtilis up to 500 ug/ml after 48 hrs; type: functional, organism-based
Bacillus subtilis [5] = test: Antibacterial activity against Bacillus subtilis after 48 hrs; type: functional

| MIC (Bacillus subtilis [5]) [µg/mL] | SMILES | Activity (Escherichia coli [1]) | Activity (Escherichia coli [2]) | Activity (Bacillus subtilis [3]) | Activity (Bacillus subtilis [4]) |
| --- | --- | --- | --- | --- | --- |
| – | CCCCCCCCOC(=O)c1ccncc1 | inactive | inactive | inactive | inactive |
| – | CCCCC[C@@H](C)COC(=O)c1ccncc1 | inactive | inactive | inactive | inactive |
| < 10 | CC1(C)S[C@@H]2[C@H](NC(=O)[C@H](N)c3ccccc3)C(=O)N2[C@H]1C(=O)O [AMPICILLIN] | – | – | – | – |
